Test system: MDA-MB-231 breast cancer cells
Experiment: Overhead culture of MDA-MB-231 breast cancer cells with paclitaxel, relative cell count
Type: cell-based
Conditions: 500 nM paclitaxel, 48 h overhead culture
Method: In the present experiment, MDA-MB-231 breast cancer cells were initially seeded on cell culture substrates according to the present invention, in particular nanoporous glass membranes with average pore diameters of 17 nm, 26 nm, 46 nm, 81 nm, and 124 nm, and on a smooth non-porous glass surface and cultured for 24 h in order to obtain homogeneous cell colonization on all substrates. Subsequently, the samples were inverted and divided into two groups: one control group and one test group, wherein the culturing took place in overhead culture for 48 h. In this context, the control group was cultured in normal culture medium and 500 nM paclitaxel was added to the culture medium of the test group. During culturing for 48 h in overhead culture, a reduction of the relative cell count on the substrates according to the invention by approximately 35-55% in the test group as compared to the control group was observed (FIG. 7).

SMILES: CC(=O)O[C@H]1C(=O)[C@@]2(C)[C@H]([C@H](OC(=O)c3ccccc3)[C@]3(O)C[C@H](OC(=O)[C@H](O)[C@@H](NC(=O)c4ccccc4)c4ccccc4)C(C)=C1C3(C)C)[C@]1(OC(C)=O)CO[C@@H]1C[C@@H]2O [paclitaxel]
- reduction of the relative cell count in the test group as compared to the control group (on nanoporous glass membranes (17, 26, 46, 81, 124 nm)): 35-55%
- reduction of the relative cell count in the test group as compared to the control group (on smooth non-porous glass surface): approximately 5%
